Converted amounts (≈) assume the structure as drawn. Non-standard residues stand in square brackets, D forms with d. Residues, ends and D or L forms follow the SMILES beside them. *: point of attachment. Guan = N-terminal guanidation, N=C(N)*; hArg = N=C(N)NCCCC[C@H](N)C(=O)O; Agp = N=C(N)NC[C@H](N)C(=O)O; dOrn = NCCC[C@@H](N)C(=O)O; code O = not defined here; Orn = NCCC[C@H](N)C(=O)O

In one experiment the test system is M. luteus 10240. Kind of experiment: Growth inhibition assay (microdilution MIC). It is filed as cell-based, Micrococcus luteus. Conditions: 1% TSB, 20 h at 37° C. As to the method: (§1) The minimum inhibitory concentrations (MIC) of the antimicrobial peptides and peptide derivatives were determined in microdilution assays. These used a continuous peptide dilution in sterile flat-bottomed 96-well microtiter plates (polystyrene, Greiner Bio-One GmbH, Frickenhausen, Germany) and a total volume of 100 μL per well. The aqueous peptide or peptidomimetic solutions were diluted with 1% TSB water, to obtain a final concentration of 256 μg/mL. 50 μL of the peptide or peptidomimetic solution was pipetted into the first well of each series and stirred. From this solution, 50 μL was transferred to the second well, stirred and again 50 μL was transferred to the next well, and so on. A double dilution series is obtained, beginning at 256 μg/mL in the first well to 125 ng/mL in the twelfth well. The bacteria, e.g. E. coli BL21 A1, were cultured overnight at 37° C. in nutrient broth (NB, Carl Roth GmbH+Co. KG, Karlsruhe, Germany). 50 μL of a 5×10^6 bacteria/mL suspension in 1% TSB was added to each well of the microtiter plate and thus a final concentration of the peptides or peptidomimetics from 128 μg/mL (well 1) to 62.5 ng/mL (well 12) was established in each series. The plates were incubated at 37° C. for 20 h and then the absorption was measured at 595 nm with a TECAN microtiter plate spectrophotometer (Tecan Trading AG, Mannedorf, Switzerland). The MIC values of all peptides and peptidomimetics were determined in triplicate. Sterile water was used as negative control. The MIC value represents the lowest peptide concentration at which no bacterial growth is observed after an incubation time of 20 h at 37° C.
(§2) The MIC values of the peptides and peptide derivatives against Escherichia coli BL21 A1 and Micrococcus luteus ATCC 10240 are given in Table 7.
(In general: In broth dilution the organism is exposed to a series of concentrations in liquid medium.)
Consider “H-GNNRPVYIPQPRPPHPRL-OH [SEQ ID NO. 87, reference compound]”, for which the “MIC M. luteus 10240” value came to 64 µg/mL.

The same experiment, now with this note: 10240, 20 h.
As for H-VDKPPYLPRPRPPRRIYNA-NH2 [compound 47], the “MIC M. luteus 10240” value was 16 µg/mL.

Take `CC[C@H](C)[C@H](NC(=O)[C@H](CNC(=N)N)NC(=O)[C@H](CCCNC(=N)N)NC(=O)[C@@H]1CCCN1C(=O)[C@@H]1CCCN1C(=O)[C@H](CCCNC(=N)N)NC(=O)[C@@H]1CCCN1C(=O)[C@H](CCCNC(=N)N)NC(=O)[C@@H]1CCCN1C(=O)[C@H](CC(C)C)NC(=O)[C@H](Cc1ccc(O)cc1)NC(=O)[C@@H]1CCCN1C(=O)[C@@H]1CCCN1C(=O)[C@H](CCCCN)NC(=O)[C@H](CC(=O)O)NC(=O)[C@@H](N)C(C)C)C(=O)N[C@@H](Cc1ccc(O)cc1)C(=O)N[C@@H](CC(N)=O)C(=O)N[C@@H](CCCCNC(=N)N)C(N)=O` [compound 65] (H-VDKPPYLPRPRPPR[Agp]IYN[hArg]-NH2): the “MIC M. luteus 10240” value stood at 2 µg/mL (≈ 0.842 µM).

On to H-VDKPPYLPRPRPPRRIYN-OH [compound 28], for which the “MIC M. luteus 10240” value was determined as 128 µg/mL.

Turning to `CC[C@@H](C)[C@@H](NC(=O)[C@@H](CCCNC(=N)N)NC(=O)[C@@H](CCCNC(=N)N)NC(=O)[C@H]1CCCN1C(=O)[C@H]1CCCN1C(=O)[C@@H](CCCNC(=N)N)NC(=O)[C@H]1CCCN1C(=O)[C@@H](CCCNC(=N)N)NC(=O)[C@H]1CCCN1C(=O)[C@@H](CC(C)C)NC(=O)[C@@H](Cc1ccc(O)cc1)NC(=O)[C@H]1CCCN1C(=O)[C@H]1CCCN1C(=O)[C@@H](CCCCN)NC(=O)[C@@H](CC(=O)O)NC(=O)[C@H](N)C(C)C)C(=O)N[C@H](Cc1ccc(O)cc1)C(=O)N[C@H](CC(N)=O)C(=O)N[C@H](CCCNC(=N)N)C(N)=O` [SEQ ID NO. 115, vdkppylprprpprriynr-NH2] (H-[dV][dD][dK][dP][dP][dY][dL][dP][dR][dP][dR][dP][dP][dR][dR][dI][dY][dN][dR]-NH2), the “MIC M. luteus 10240” value came to 64 µg/mL (≈ 26.8 µM).

Regarding `CC[C@H](C)[C@H](NC(=O)[C@H](CCCN)NC(=O)[C@H](CCCNC(=N)N)NC(=O)[C@@H]1CCCN1C(=O)[C@@H]1CCCN1C(=O)[C@H](CCCNC(=N)N)NC(=O)[C@@H]1CCCN1C(=O)[C@H](CCCNC(=N)N)NC(=O)[C@@H]1CCCN1C(=O)[C@H](CC(C)C)NC(=O)[C@H](Cc1ccc(O)cc1)NC(=O)[C@@H]1CCCN1C(=O)[C@@H]1CCCN1C(=O)[C@H](CCCCN)NC(=O)[C@H](CC(=O)O)NC(=O)[C@@H](N)C(C)C)C(=O)N[C@@H](Cc1ccc(O)cc1)C(=O)N[C@@H](CCC(N)=O)C(=O)N[C@@H](CCCN)C(N)=O` [compound 74] (H-VDKPPYLPRPRPPR[Orn]IYQ[Orn]-NH2), the “MIC M. luteus 10240” value is 8 µg/mL (≈ 3.45 µM).

With H-VDKPPYLPRPRPPRRIYNH-NH2 [compound 53], the “MIC M. luteus 10240” value came to 16 µg/mL.

Regarding `CC[C@@H](C)[C@@H](NC(=O)[C@@H](CCCN)NC(=O)[C@@H](CCCNC(=N)N)NC(=O)[C@H]1CCCN1C(=O)[C@H]1CCCN1C(=O)[C@@H](CCCNC(=N)N)NC(=O)[C@H]1CCCN1C(=O)[C@@H](CCCNC(=N)N)NC(=O)[C@H]1CCCN1C(=O)[C@@H](CC(C)C)NC(=O)[C@@H](Cc1ccc(O)cc1)NC(=O)[C@H]1CCCN1C(=O)[C@H]1CCCN1C(=O)[C@@H](CCCCN)NC(=O)[C@@H](CC(=O)O)NC(=O)[C@H](N)C(C)C)C(=O)N[C@H](Cc1ccc(O)cc1)C(=O)N[C@H](CC(N)=O)C(=O)N[C@H](CCCN)C(N)=O` [SEQ ID NO. 116, vdkppylprprpproiyno-NH2] (H-[dV][dD][dK][dP][dP][dY][dL][dP][dR][dP][dR][dP][dP][dR][dOrn][dI][dY][dN][dOrn]-NH2), the “MIC M. luteus 10240” value stood at 128 µg/mL (≈ 55.5 µM).

Another experiment relates to E. coli BL21 A1.
Assay: not given
The format is cell-based, Escherichia coli.
Details: not given
As to the method: as §1, §2
For “H-VDKPPYLPRPRPPRRIYNH-NH2 [SEQ ID NO. 53]”, the “times lower activity / higher MIC value than oncocin against E. coli” value came out at 4 times.

Still in this experiment, the particulars now being: 1% TSB, 20 h at 37° C.
For “84 (Guan-VDKPPYLPRPRPPRRIYNR-NH2) [compound 84]”, the “MIC E. coli BL21 A1” value was 32 µg/mL.

Regarding “85 (Guan-VDKPPYLPRPRPPR[code O]IYN[code O]-NH2; reading uncertain; also: printed as Guan-VDKPPYLPRPRPPROIYNO-NH2) [compound 85]”, the “MIC E. coli BL21 A1” value was 64 µg/mL.

Staying with this experiment, now noted: BL21, 20 h.
Turning to H-VDKPPYLPRPRPPRRIYNA-NH2 [compound 47], the “MIC E. coli BL21 A1” value stood at 32 µg/mL.

Regarding `CC[C@H](C)[C@H](NC(=O)[C@H](CNC(=N)N)NC(=O)[C@H](CCCNC(=N)N)NC(=O)[C@@H]1CCCN1C(=O)[C@@H]1CCCN1C(=O)[C@H](CCCNC(=N)N)NC(=O)[C@@H]1CCCN1C(=O)[C@H](CCCNC(=N)N)NC(=O)[C@@H]1CCCN1C(=O)[C@H](CC(C)C)NC(=O)[C@H](Cc1ccc(O)cc1)NC(=O)[C@@H]1CCCN1C(=O)[C@@H]1CCCN1C(=O)[C@H](CCCCN)NC(=O)[C@H](CC(=O)O)NC(=O)[C@@H](N)C(C)C)C(=O)N[C@@H](Cc1ccc(O)cc1)C(=O)N[C@@H](CC(N)=O)C(=O)N[C@@H](CCCCNC(=N)N)C(N)=O` [compound 65] (H-VDKPPYLPRPRPPR[Agp]IYN[hArg]-NH2), the “MIC E. coli BL21 A1” value is 4 µg/mL (≈ 1.68 µM).

Turning to “H-VDKPPYLPRPRPPRRIYNH-NH2 [SEQ ID NO. 53]”, the “MIC E. coli BL21 A1” value stood at 16 µg/mL.

Turning to `CC[C@@H](C)[C@@H](NC(=O)[C@@H](Cc1ccc(O)cc1)NC(=O)[C@@H](CC(N)=O)NC(=O)[C@H](N)CCCN)C(=O)N[C@H](CCCN)C(=O)N[C@H](CCCNC(=N)N)C(=O)N1CCC[C@@H]1C(=O)N1CCC[C@@H]1C(=O)N[C@H](CCCNC(=N)N)C(=O)N1CCC[C@@H]1C(=O)N[C@H](CCCNC(=N)N)C(=O)N1CCC[C@@H]1C(=O)N[C@H](CC(C)C)C(=O)N[C@H](Cc1ccc(O)cc1)C(=O)N1CCC[C@@H]1C(=O)N1CCC[C@@H]1C(=O)N[C@H](CCCCN)C(=O)N[C@H](CC(=O)O)C(=O)N[C@@H](C(N)=O)C(C)C` [SEQ ID NO. 118, onyiorpprprplyppkdv-NH2] (H-[dOrn][dN][dY][dI][dOrn][dR][dP][dP][dR][dP][dR][dP][dL][dY][dP][dP][dK][dD][dV]-NH2), the “MIC E. coli BL21 A1” value lay in the range of 64 to 256 µg/mL.

For `CC[C@@H](C)[C@@H](NC(=O)[C@@H](Cc1ccc(O)cc1)NC(=O)[C@@H](CC(N)=O)NC(=O)[C@H](N)CCCNC(=N)N)C(=O)N[C@H](CCCNC(=N)N)C(=O)N[C@H](CCCNC(=N)N)C(=O)N1CCC[C@@H]1C(=O)N1CCC[C@@H]1C(=O)N[C@H](CCCNC(=N)N)C(=O)N1CCC[C@@H]1C(=O)N[C@H](CCCNC(=N)N)C(=O)N1CCC[C@@H]1C(=O)N[C@H](CC(C)C)C(=O)N[C@H](Cc1ccc(O)cc1)C(=O)N1CCC[C@@H]1C(=O)N1CCC[C@@H]1C(=O)N[C@H](CCCCN)C(=O)N[C@H](CC(=O)O)C(=O)N[C@@H](C(N)=O)C(C)C` [SEQ ID NO. 117, rnyirrpprprplyppkdv-NH2] (H-[dR][dN][dY][dI][dR][dR][dP][dP][dR][dP][dR][dP][dL][dY][dP][dP][dK][dD][dV]-NH2), the “MIC E. coli BL21 A1” value is 64 to 256 µg/mL.

As to H-VDKPPYLPRPPPPRRIYN-NH2 [compound 1], the “MIC E. coli BL21 A1” value was 128 µg/mL.

Consider `CC[C@H](C)[C@H](NC(=O)[C@H](CCCN)NC(=O)[C@H](CCCNC(=N)N)NC(=O)[C@@H]1CCCN1C(=O)[C@@H]1CCCN1C(=O)[C@H](CCCNC(=N)N)NC(=O)[C@@H]1CCCN1C(=O)[C@H](CCCNC(=N)N)NC(=O)[C@@H]1CCCN1C(=O)[C@H](CC(C)C)NC(=O)[C@H](Cc1ccc(O)cc1)NC(=O)[C@@H]1CCCN1C(=O)[C@@H]1CCCN1C(=O)[C@H](CCCCN)NC(=O)[C@H](CC(=O)O)NC(=O)[C@@H](N)C(C)C)C(=O)N[C@@H](Cc1ccc(O)cc1)C(=O)N[C@@H](CCC(N)=O)C(=O)N[C@@H](CCCN)C(N)=O` [SEQ ID NO. 74, VDKPPYLPRPRPPROIYQO-NH2] (H-VDKPPYLPRPRPPR[Orn]IYQ[Orn]-NH2), for which the “MIC E. coli BL21 A1” value is 4 µg/mL (≈ 1.72 µM).

In the case of `CC[C@H](C)[C@H](NC(=O)[C@@H](CCCNC(=N)N)NC(=O)[C@H](CCCNC(=N)N)NC(=O)[C@@H]1CCCN1C(=O)[C@@H]1CCCN1C(=O)[C@H](CCCNC(=N)N)NC(=O)[C@@H]1CCCN1C(=O)[C@H](CCCNC(=N)N)NC(=O)[C@@H]1CCCN1C(=O)[C@H](CC(C)C)NC(=O)[C@H](Cc1ccc(O)cc1)NC(=O)[C@@H]1CCCN1C(=O)[C@@H]1CCCN1C(=O)[C@H](CCCCN)NC(=O)[C@H](CC(=O)O)NC(=O)[C@@H](N)C(C)C)C(=O)N[C@@H](Cc1ccc(O)cc1)C(=O)N[C@@H](CC(N)=O)C(=O)N[C@H](CCCNC(=N)N)C(N)=O` [compound 112] (H-VDKPPYLPRPRPPR[dR]IYN[dR]-NH2), the “MIC E. coli BL21 A1” value came to 4 µg/mL (≈ 1.67 µM).

For the origin of these results see patent publication US8686113B2 (priority 2009, dated 2014).
